Data set [1] relates to HT-29. Kind of data set: Down-regulation of c-Myc mRNA expression in human HT-29 cells assessed as c-Myc mRNA level at 240 uM after 48 hrs by RT-qPCR analysis (reference value: 100%). Type of data set: functional.
Data set [2] has as its system HT-29. Kind of data set: Down-regulation of c-Myc protein expression in human HT-29 cells assessed as c-Myc protein level at 240 uM after 48 hrs by ELISA (reference value: 100%). Type of data set: functional. Background: An ELISA detects its analyte on a solid surface through an enzyme-linked reagent.
For data set [3], the system named is HT-29. Kind of data set: Down-regulation of hTERT mRNA expression in human HT-29 cells assessed as hTERT mRNA level at 240 uM after 48 hrs by RT-qPCR analysis (reference value: 100%). Type of data set: functional. On the technique in general: Quantitative PCR measures a nucleic acid by following its amplification.
The subject of data set [4] is HT-29. Kind of data set: Down-regulation of VEGFRA mRNA expression in human HT-29 cells assessed as VEGFRA mRNA level at 240 uM after 48 hrs by RT-qPCR analysis (reference value: 100%). Type of data set: functional.
A further data set concerns HEK293. Kind of data set: Cytotoxicity against HEK293 cells assessed as decrease in cell viability after 2 days by MTT assay. Type of data set: ADME, cell-based. The settings on record: Homo sapiens, HEK293, 48 h. For orientation: Formazan colour is commonly taken as a measure of viable cells.
For data set [5], the system named is HT-29. Kind of data set: Down-regulation of VEGFA protein expression in human HT-29 cells assessed as VEGFA protein level at 240 uM after 48 hrs by ELISA (reference value: 100%). It counts as functional.
Data set [6] in a line: Selectivity index, ratio of IC50 for HEK293 cells to IC50 for human HT-29 cells. Type of data set: toxicity. To be noted: HEK293 cells versus HT-29 cells, read-out: Ratio IC50.
The test system of data set [7] is HT-29. Kind of data set: Cytotoxicity against human HT-29 cells assessed as decrease in cell viability after 2 days by MTT assay. Type of data set: functional, cell-based. To be noted: HT-29, 48 h.
The next data set relates to MCF7. Kind of data set: Cytotoxicity against human MCF7 cells assessed as decrease in cell viability after 2 days by MTT assay. Type of data set: functional, cell-based. To be noted: MCF7, 48 h.
A short description of data set [8]: Selectivity index, ratio of IC50 for HEK293 cells to IC50 for human MCF7 cells. The settings on record: HEK293 cells versus MCF7 cells.
In data set [9] the test system is HT-29. Kind of data set: Down-regulation of hTERT mRNA expression in human HT-29 cells assessed as hTERT mRNA level at 145 uM after 48 hrs by RT-qPCR analysis (reference value: 100%). It counts as functional.
Data set [10] has as its system HT-29. Kind of data set: Down-regulation of c-Myc mRNA expression in human HT-29 cells assessed as c-Myc mRNA level at 145 uM after 48 hrs by RT-qPCR analysis (reference value: 100%). It counts as functional.
The test system of data set [11] is HT-29. Kind of data set: Down-regulation of VEGFRA mRNA expression in human HT-29 cells assessed as VEGFRA mRNA level at 145 uM after 48 hrs by RT-qPCR analysis (reference value: 100%). It counts as functional.
Data set [12] relates to HT-29. Kind of data set: Down-regulation of c-Myc protein expression in human HT-29 cells assessed as c-Myc protein level at 145 uM after 48 hrs by ELISA (reference value: 100%). It counts as functional.
The subject of data set [13] is HT-29. Kind of data set: Down-regulation of VEGFA protein expression in human HT-29 cells assessed as VEGFA protein level at 145 uM after 48 hrs by ELISA (reference value: 100%). Type of data set: functional.
Data set [14] has as its system HT-29. Kind of data set: Down-regulation of VEGFA protein expression in human HT-29 cells assessed as VEGFA protein level at 10 uM after 48 hrs by ELISA (reference value: 100%). Type of data set: functional.
Data set [15] deals with HT-29. Kind of data set: Down-regulation of VEGFRA mRNA expression in human HT-29 cells assessed as VEGFRA mRNA level at 10 uM after 48 hrs by RT-qPCR analysis (reference value: 100%). It counts as functional.
Data set [16] concerns HT-29. Kind of data set: Down-regulation of c-Myc protein expression in human HT-29 cells assessed as c-Myc protein level at 10 uM after 48 hrs by ELISA (reference value: 100%). It counts as functional.
The subject of data set [17] is HT-29. Kind of data set: Down-regulation of c-Myc mRNA expression in human HT-29 cells assessed as c-Myc mRNA level at 10 uM after 48 hrs by RT-qPCR analysis (reference value: 100%). It counts as functional.
In data set [18] the test system is HT-29. Kind of data set: Down-regulation of hTERT mRNA expression in human HT-29 cells assessed as hTERT mRNA level at 10 uM after 48 hrs by RT-qPCR analysis (reference value: 100%). Type of data set: functional.

For orientation: IC50 means the concentration at which inhibition is half-maximal. Take `c1ccc(-c2cccnc2)cc1`: the Activity was 35% in the data set on HT-29 [1]; 60% in the data set with HT-29 [2]; 56% with HT-29 [3]; 34% with HT-29 [4]; 42% in the data set on HT-29 [5]. In addition, the IC50 is 321 µM in the data set with HEK293, over 400 µM in the data set with HT-29 [7] and over 400 µM with MCF7. Further, the selectivity ratio in [6] and in data set [8] was under 1 each time.

Regarding `Oc1ccccc1-c1cccnc1`, the Activity in the data set with HT-29 [9] is 44%; in the data set on HT-29 [10], 39%; in the data set with HT-29 [11] it was 18%; in the data set with HT-29 [12], 100%; with HT-29 [13], 96%. Further, the IC50 turned out to be 294 µM with HEK293, 115 µM in the data set with HT-29 [7] and 41 µM in the data set with MCF7. In addition, the results for the selectivity ratio in [6] and in [8] were 2 and 7, respectively.

Consider `COc1cccc(N2CCCCC2)c1`, for which the Activity in the data set on HT-29 [14] turned out to be 42%; in the data set on HT-29 [15], 44%; with HT-29 [16] it was 100%; in the data set on HT-29 [17] it was 63%; with HT-29 [18] it was 30%. For the same compound, the IC50 is over 400 µM in the data set with HEK293, 26 µM in the data set with HT-29 [7] and 160 µM with MCF7. In addition, the selectivity ratio in [6] stood at 20; in data set [8] it was 3.

(Values after ChEMBL document CHEMBL4368926, “Arylpyridines, arylpyrimidines and related compounds as potential modulator agents of the VEGF, hTERT and c-Myc oncogenes” (Bioorg Med Chem, 2019).)
